The values below come from patent US20120021061A1, “MEDICAL AND NUTRITIONAL FORMULATIONS” (Comvita New Zealand Limited, priority 2008, published 2012).

Read-outs that look alike come from different tables or passages of the source.

In one assay the test system is IL-1β. Nature of the assay: Cytokine production by peripheral blood mononuclear cells, IL-1β. The format is cell-based. Particulars: human PBMC supernatants; FIG. 9. As to the method: (§1) An experiment was completed using three honey samples, the first being a high UMF manuka honey containing 1002 mg of MGO/kg, a moderate UMF manuka honey containing 649 mg of MGO/kg, a clover honey containing minimal MGO/kg and pure MGO alone. Results were compared against a negative control with cells alone […] and PHA as the inflammatory agent. Human blood was collected from six donors and peripheral blood mononuclear cells were separated by Ficoll gradients. Donor bloods were processed in pairs. The experiments tested the effect of the honey on the blood cells and the levels of cytokines produced. Supernatents from cells incubated with varying honey and MGO concentrations were collected and assayed for a number of pro and anti-inflammatory cytokines. Cytokines are molecules secreted by cells that are involved in communication between cells. Cytokines bind to specific receptors on cell surfaces and the signals then created can alter cellular functions. The cytokines tested in this study were IL-1β, IL-10 and […]. Cytokines were measured using a biorad, bioplex suspension array system.

Another assay deals with IL-10. Description: Cytokine production by peripheral blood mononuclear cells, IL-10. It counts as cell-based. Particulars: human PBMC supernatants; FIG. 10. As to the method: as §1
A further assay has as its system TNFα. Nature of the assay: Cytokine production by peripheral blood mononuclear cells, TNFα. Conditions: human PBMC supernatants; FIG. 11. It counts as cell-based. As to the method:
as §1

Another assay has as its system H. pylori SS1. Nature of the assay: Viability of H. pylori SS1 after overnight incubation with MGO or honey (drop plate CFU). It counts as cell-based, Helicobacter pylori. Conditions: for Helicobacter pylori viable count: catalase treated. As to the method:
The H. pylori SS1 strain was obtained and initially cultured on Campylobacter Selective Agar (CSA) plates and incubated at 37° C. under microaerobic conditions (10% Co2) for 48 h. Following culture, the isolates were checked for purity (microscopy, catalase and oxidase), after which SS1 was cultured in Brucella broth supplemented with 5% Fetal Bovine Serum and 1% Vitox under microaerobic conditions with shaking for 24 h. The effect of 1) methylglyoxal (MGO), density 1.17 g/ml, 2) Honey M1: Manuka honey O50336-10 (MGO content=0.593 mg/g), 3) Honey M2=Honey M1 adjusted to a pH of 9.0, 4) Honey M3=Comvita Wound Care Honey 18+ (MGO content=0.6 mg/g) and 5) Honey C: Control honey (100% Australian Honey, Leabrook Farms, Australia) on H. pylori was determined. MGO at concentrations of 1, 5, 10, 20, 50 and 100 mg/L were prepared by dissolving an appropriate amount of MGO in Brucella broth. To ensure an equivalent concentration of MGO in the Manuka honeys, the appropriate weight of honey (Honey M1 and Honey M2=6.75 g), (Honey M3=6.67 g) was measured out, after which an equal volume of Brucella broth at 37° C. was added to the honey and this was vortexed to aid mixing. Following vortexing, an equal volume of catalase solution (2 mg/ml) prepared from bovine liver was added to negate the effect of hydrogen peroxide, and this was again vortexed to aid mixing. The total volume was then adjusted to 40 ml using Brucella broth. […] The control Honey C was prepared in a similar fashion starting with an initial weight=6.71 g). To avoid contamination with lactic acid bacteria that are commonly present in honey (e.g. Leuconostoc citreum and Lactococcus garvieae), preparations of honey M1 and Honey C were filter sterilized through 0.22 µm pore size membrane filters prior to use in the in vitro assay. The Comvita wound care 18+ honey was not filter sterilised as this product undergoes sterilisation on manufacture. […] H. pylori were grown in broth culture overnight as described above. Following incubation, cells were washed once and resuspended in Brucella broth to an Optical Density (OD) 600 1.5. Ten pl of the microbial suspension was then inoculated into wells of a 96-well microtiter plate containing 200 pl of broth, supplemented with a range of concentrations of MGO (0, 1, 5, 10, 20, 50 and 100 mg/L), or an equivalent concentration of MGO contained in the Manuka honeys, or the same percentage of control honey. Each of the concentrations of MGO, MGO in the Manuka honeys and the control honey were tested in triplicate. Following addition of H. pylori to the microtiter plates, these were incubated under microaerobic conditions (10% CO2) overnight. Following incubation the number of viable colonies in the wells was assessed using the drop plate method. Following incubation the number of visible colonies on CSA agar plates were counted and the colony forming units (CFU)/ml calculated.

Another assay concerns Helicobacter pylori. Description: Helicobacter pylori infected mice fed honey. The format is in vivo. Conditions: honey 2.8 g/kg body weight, MGO given in sugar solution. The text has this: An experiment was completed feeding manuka honey with a UMF 22 to Helicobacter pylori infected mice at a rate of 2.8 g/kg body weight honey.
The next assay relates to neutrophils. Nature of the assay: Neutrophil superoxide production with honeys of increasing MGO. It counts as cell-based. Particulars: increasing MGO concentrations in honey. The text has this:
The inventors conducted an experiment to determine whether increasing MGO concentrations also increase the ability of honey with the MGO to prevent or slow neutrophils from making superoxides (a part of the inflammatory response).

The test system of the next assay is E. coli O157/Nissle. The format is cell-based. Conditions: no honey.

`CC(=O)C=O` [MGO, methylglyoxal]: the IL-1β production entry in the assay on IL-1β is given as “no effect”. The IL-10 values result with IL-10 was “not affected”. Besides, in the assay on TNFα, the TNFα production result is “no effect”. In addition, in the assay with H. pylori SS1 (MGO alone or equivalent MGO in honey), the “MGO concentration at which CFU of H. pylori SS1 were reduced” value is listed as not below 20 mg/L. Also, the “Helicobacter pylori viable count” value in the assay with H. pylori SS1 (MGO conc 20 mg/L, honey conc 4.2%) is listed as 7.1×10^6 CFU/ml; in the assay with H. pylori SS1 (MGO conc 50 mg/L, honey conc 8.4%), 7.0×10^5 CFU/ml; in the assay on H. pylori SS1 (MGO conc 100 mg/L, honey conc 16.7%), 1.1×10^4 CFU/ml. In addition, in the assay with Helicobacter pylori, the “H. pylori bacteria numbers in infected mice” value is “does not reduce bacteria numbers alone”. In the assay on neutrophils, the “Ability to prevent or slow neutrophils from making superoxides” value is listed as “made no difference at all”.

With Catalase, in the assay on E. coli O157/Nissle (catalase 1000 U/mL alone), the “Mean inhibition zone (n = 3)” value turned out to be 0.0 mm.

`OO` [Peroxide, hydrogen peroxide]: the “Mean inhibition zone (n = 3)” value in the assay with E. coli O157/Nissle (peroxide 36.7 mM + catalase 1000 U/mL) was 0.0 mm; in the assay with E. coli O157/Nissle (peroxide 36.7 mM alone), 3.3 mm.

As to `CC(=O)C=O` [MGO (pH 9), methylglyoxal], the “Helicobacter pylori viable count” value in the assay on H. pylori SS1 (MGO conc 50 mg/L, honey conc 8.4%, listed as MGO at pH 9) was 6.9×10^6 CFU/ml; in the assay on H. pylori SS1 (MGO conc 100 mg/L, honey conc 16.7%, listed as MGO at pH 9) it was 1.7×10^6 CFU/ml.
